Test results from patent US9387212B2, “Methods for treating Parkinson's disease” (UCB Pharma S.A., priority 2012, dated 2016).

Columns and labels:
PD patients = conditions: Mizuno et al. 2010; Nutt et al., 2008; cited from earlier work
[1] = test system: unilateral 6-OHDA-lesioned rats; assay: Video-based behavioural profile analysis (Ethovision) in drug-naive hemi-parkinsonian rats; assay type: in vivo, rat; conditions: % of the veh-treated rats; for Distance (quantity of movement): Radiprodil 3 mg/kg po, Tozadenant 30 mg/kg po, LD25 ip, LD/BZ 16/4 mg/kg ip; for Adequate body position / Adequate trajectory (gyration radius) / Contra turns (ability to shift direction) / Ipis turns (ability to shift direction): same doses
Method: (§1) The specific behavioural profile of unilateral 6-OHDA-lesioned rats was recorded via 8 cameras connected to a video acquisition system. Rats under treatment were placed freely in a small environment (rotometers, 25×22 cm) or in large open-field (50×40 cm) and the behaviour was video-recorded for 55 minutes (total of 3300 sec). The placement in the small (rotometers) or large (open-field) environment may depend on the test. The rats were filmed from below as described in the section which concerns the rotational activity.
(§2) After the in-live data recordings, the videos are subsequently analyzed by the Ethovision program from (Noldus, version 9.0). The animal and its movements and displacements were defined according to three points (nose, center and tail). The movements, position of the body and, the space occupation, were set-up according to the filter analysis defined with specific criteria and thresholds in the program. Various behavioural parameters were analyzed and only the relevant, i.e. the non-correlated ones, were kept for the final behavioural description.
(§3) The analysis of the other types of behaviours was done with specific parameters selected in the video analysis program (Ethovision 9.0) in order to describe as best as possible the behaviour observed visually and being able to quantify it. The parameters “Distance”, “Counter Clockwise rotations”, “Clockwise rotations”, “Streched” were extracted from the analysis. Additional parameter, the “gyration radius” is calculated from the raw data obtained by the system. • Distance (=“distance”): the total distance moved by the animal (cm) • Counter clockwise (=“ipsilateral turns”): count of the number of 360° turns of ipsilateral rotations in the same sense than that of the lesion. • Clockwise (=“contralateral turns”): count of the number of 360° turns of contralateral rotations in the opposite sense to that of the lesion. • Stretched: (=“adequate body position”): time spent in a position wherein the rat stands on its four paws without any bent position of the trunk. In the program this is the parameter “body elongation” that is used to discriminate the intensity and frequency of the adequate body position. The threshold is fixed at 70%. • Gyration Radius (=“adequate trajectory”): for a specific time interval, average distance between the animal position and its average position within this specific time interval. This parameter reflect the ability of the rats to use the entire space of the arena and is measured in centimeters. Statistical Analysis
Specific behavioural analysis: The five behaviours kept for the thorough behavioural analysis (i.e. distance, contra turns, ipsi turns, adequate body position and adequate trajectory) were analyzed with parametric statistic however if variance homogeneity was not respected for the data (Bartlett's test for equal variances) these latter were analyzed with non-parametric statistics (Kruskal-Wallis). In both case, one-way ANOVA was performed to discriminate the effect of the various treatments on each independent behaviours. Significant differences between means were determined by Tukey post hoc test or Dunn's Multiple Comparison test with p<0.05.
The effects of the oral co-administration of Radiprodil (3 mg/kg, po) with Tozadenant (30 mg/kg, po) on the rat behaviour are compared to the testing of: • 1) these compounds separately • 2) a partially active dose of L-Dopa (25 mg/kg, ip) • 3) a fully active dose of L-Dopa/benserazide (16/4 mg/kg, ip).
The behavioural profile was analyzed in detail with an automated behavioural analysis system based on video recordings (see methods section for the description). In addition, classical measurements (rotometers and actometers) of the behaviour are also used to assess quantity of movements. […]

[2] = test system: hemi-parkinsonian L-Dopa-primed rats; assay: Behavioural profile analysis in L-Dopa-primed, fully dyskinetic hemi-parkinsonian rats; assay type: in vivo, rat; conditions: Radiprodil 3 mg/kg, Tozadenant 30 mg/kg; for Distance, in comparison to the same rats under L-Dopa/benserazide: arrow in cell: increase, decrease or no change vs LD/BZ
Method: as §1, §2
The analysis of the Abnormal Involuntary movement (“AIMs”) was performed with a specific parameter defined in Ethovision 9.0. The parameter “body elongation” was used to discriminate both the intensity and the frequency of dyskinetic (i.e. dystonic) position of the rat.
as §3
Consecutively to that chronic L-Dopa/benzerazide treatment, they show a very high level of contralateral rotations and AIMs at the end of this chronic treatment when tested in the open-field. […] This absence of cross-sensitization on the level of contralateral rotations and AIMs result was entirely unexpected.

[3] = test system: unilateral 6-OHDA-lesioned rat model of Parkinson's disease; assay: General activity (distance travelled, rearing counts) in actometers; assay type: in vivo; conditions: Radiprodil 3 mg/kg po, Tozadenant 30 mg/kg po; three-way mixed ANOVA, Tukey p<0.05
Method: Subjects: Males Sprague-Dawley rats (Janvier, France), weighing 250-275 g at the time of surgery and 400-450 g at the time of drug testing are used.
On the day of surgery, one week after arrival, rats received unilateral 6-OHDA injection into the right medial forebrain bundle. Each rat was administered with Imipramine HCl (Sigma) 15 minutes before surgery to protect norepinephrinergic (NE) neurons. Rats were anesthetized with Ketamine (Ceva, 75 mg/kg) and Xylazine (Bayer, 10 mg/kg) and placed in stereotaxic frame (David Kopf Instrument). […] Each rat was monitored and handled regularly for 3 weeks to ensure full recovery and acclimation to the experimenters and environment. […]
General activity was recorded within large open-field measuring horizontal and vertical movements and connected to PCs. […] Locomotion was detected and measured by 16 infrared light-beam sensors located on each side of the enclosure at heights of 3 cm. […] Activity counts were recorded by a personal computer. […]
The level of general activity (distance and rearing) measurement in actometers was assessed by three-way mixed ANOVA with the A2A antagonist (2 levels) and the NR2B antagonist (2 levels) as between-group factors and the time as within-subjects factor (6 or 24 levels). […]

[4] = test system: unilateral 6-OHDA-lesioned rats; assay: Chronic add-on treatment to an active dose of L-Dopa/benserazide (10 acquisition sessions; rotometers and open-field); assay type: in vivo, rat; conditions: plus L-Dopa 14 mg/kg/benserazide 3.5 mg/kg; in comparison to Tozadenant-treated rats (FIG. 16)
Method: Rotational behaviour was recorded using a home-made computerized system. Rats were fixed in a harness, linked to mechanical sensors that were directly connected to a PC. Each 360° clock-wise or counter clock-wise turn was automatically recorded for up to 240 minutes at the maximum. Throughout the experiments, rats were allocated to individual test cages. Each of 8 clear acrylic chambers (50×40 cm), placed on a level, clear glass bottom, held by a robust frame, could be subdivided into 4 individual square test cages of 25×22 cm. A removable acrylic plate serves as a lid. […] Video sequences were recorded on hard disk for storage and subsequently transferred to PC for analysis and conservation. […]
Data of the acquisition session under treatment with A2A and/or NR2B antagonist plus L-Dopa/benserazide were analyzed by two-way repeated measures ANOVA with chronic session as within-subjects factor (10 session levels). The reliabilities of the between-mean differences were assessed with planned contrasts using an F statistic. […]
Ten acquisition sessions (once/day) of L-Dopa (14 mg/kg)/benserazide (3.5 mg/kg) given in co-administration to veh, Tozadenant, Radiprodil or the combination of both compounds increase progressively the level of L-Dopa-induced contralateral rotations when measured in rotometers (FIG. 15). […]

SMILES | efficacy in clinical trials in PD patients (PD patients) | Distance (quantity of movement) ([1]; 0-20′) | Adequate body position ([1]; 0-20′) | Adequate trajectory (gyration radius) ([1]; 0-20′) | Contra turns (ability to shift direction) ([1]; 0-20′) | Ipis turns (ability to shift direction) ([1]; 0-20′) | Distance (quantity of movement) ([1]; 30-50′) | Adequate body position ([1]; 30-50′) | Adequate trajectory (gyration radius) ([1]; 30-50′) | Contra turns (ability to shift direction) ([1]; 30-50′) | Ipis turns (ability to shift direction) ([1]; 30-50′) | Adequate body position, in comparison to the same rats under L-Dopa/benserazide ([2]; arrow gives direction vs LD/BZ) [% ↑] | Adequate trajectory, in comparison to the same rats under L-Dopa/benserazide ([2]; arrow gives direction vs LD/BZ) [% ↑] | Contra turns, in comparison to the same rats under L-Dopa/benserazide ([2]; arrow gives direction vs LD/BZ) [% ↓] | No AIMs, in comparison to the same rats under L-Dopa/benserazide ([2]; arrow gives direction vs LD/BZ) [% ↑] | Severe AIMs, in comparison to the same rats under L-Dopa/benserazide ([2]; arrow gives direction vs LD/BZ) [% ↓] | Distance, in comparison to the same rats under L-Dopa/benserazide [2] [% ↓] | distance (FIG. 1, right graph) [3] | level of severe AIMs in larger open-field, chronic add-on [4]
CCn1c(=O)c2c(nc(/C=C/c3ccc(OC)c(OC)c3)n2C)n(CC)c1=O [KW-6002] | did not show the expected efficacy |  |  |  |  |  |  |  |  |  |  |  |  |  |  |  |  |  | 
N[C@@H](Cc1ccc(O)c(O)c1)C(=O)O [LD25, L-dihydroxyphenylalanine] |  | ++ (300-500%) | + (200-300%) | +++ (>500%) | +++ (>500%) | ++ (300-500%) | +++ (>500%) | ++ (300-500%) | +++ (>500%) | +++ (>500%) | ++ (300-500%) |  |  |  |  |  |  |  | 
O=C(Nc1ccc2[nH]c(=O)oc2c1)C(=O)N1CCC(Cc2ccc(F)cc2)CC1 [Radiprodil] |  | ++ (300-500%) | ++ (300-500%) | ++ (300-500%) | + (200-300%) | + (200-300%) | + (200-300%) | ++ (300-500%) | ++ (300-500%) | + (200-300%) | + (200-300%) | 5236 | 140 | 16 | 1035 | 7 | 69 | Significant effect | level of severe AIMs is reduced
COc1ccc(N2CCOCC2)c2sc(NC(=O)N3CCC(C)(O)CC3)nc12 [Tozadenant, 4-hydroxy-4-methyl-piperidine-1-carboxylic acid (4-methoxy-7-morpholin-4-yl-benzothiazol-2-yl)-amide] |  | + (200-300%) | + (200-300%) | +++ (>500%) | + (200-300%) | + (200-300%) | ++ (300-500%) | ++ (300-500%) | +++ (>500%) | ++ (300-500%) | ++ (300-500%) | 4151 |  | 11 | 948 | 12 | 56 | Significant effect | 
C[C@@H]([C@@H](O)c1ccc(O)cc1)N1CCC(O)(c2ccccc2)CC1 [Traxoprodil] | did not show the expected efficacy |  |  |  |  |  |  |  |  |  |  |  |  |  |  |  |  |  | 
